Results reported in US12600725B2 (Memorial Sloan-Kettering Cancer Center, priority 2013, dated 2026).
Entries after “also recorded” stand apart in the source; their conditions may differ. Read-outs that look alike come from different tables or passages of the source.

Assays:
[1] = system: Hsp70 induction and AKT degradation (cytosolic Hsp90 hallmarks) in C2C12 cells; experiment: Western blot of Hsp70 induction and AKT degradation in C2C12 cells; type: cell-based, mouse; details: 24 hrs
Description: Cell fractionation and immunoblotting. Cells were either treated with DMSO (vehicle) or indicated compounds for 24 hr and lysed in RIPA buffer (50 mM Tris-HCl, pH 7.4, 150 mM NaCl, 0.5% sodium deoxycholate and 0.5% NP40) supplemented with cocktail protease inhibitors (Roche) to produce whole cell lysates. Lysates for cytosol and membrane fractions were harvested using ProteoExtract Subcellular Proteome Extraction Kit (Calbiochem) following the manufacturer's instructions. Protein concentrations were determined using BCA kit (Pierce) according to the manufacturer's instructions. […] After washing off the excess antibodies, the membranes were incubated with the corresponding horseradish peroxidase (HRP) conjugated secondary antibody. Blots were visualized by autoradiography using the Enhanced Chemiluminescence Detection System (GE Healthcare) according to manufacturer's instructions. For all gels 3-actin was used as a protein loading control.

Capan-2 cells = experiment: Cell viability assessment (CellTiter-Glo); type: cell-based
in vivo = experiment: in vivo; design: species or system mouse
CFPAC cells = experiment: Cell viability assessment (CellTiter-Glo); type: cell-based
MKN74 cells = experiment: Cell viability assessment (CellTiter-Glo); type: cell-based
[2] = system: EGFR overexpressing triple negative breast cancer cells; experiment: Apoptosis (Annexin V / 7AAD, cleaved PARP) in triple negative breast cancer cells; type: cell-based
Description: The Grp94 inhibitors of the disclosure can be used to treat patients with EGFR overexpressing triple negative breast cancer. As shown in FIGS. 13a-c, EGFR overexpressing triple negative breast cancer cells are sensitive to the selective Grp94 inhibitor PU-WS13. The sensitivity of the EGFR overexpressing triple negative breast cancer cells was tested for the presence of apoptotic cells by Annexin V staining (13a, 13b) and by immunoblotting for the presence of cleaved PARP (13c). […] The Grp94 inhibitors of the disclosure can be used to treat patients with EGFR overexpressing pancreatic cancer. […]
Cell fractionation and immunoblotting. […] Protein concentrations were determined using BCA kit (Pierce) according to the manufacturer's instructions. […]
Cell cycle and apoptosis assessment. Cell cycle and apoptosis were assessed by flow cytometry after single staining with propidium iodide (PI, BD Pharmingen) or double staining with AnnexinV-FITC (BD Pharmingen) and 7AAD (BD Pharmingen), respectively. […] DNA content was measured by BD LSRII flow cytometer and cell further analyzed using program of cell cycle analysis in FloJo (Ashland, OR). […] Signals from FL1 and FL3 channels were collected by MACSQuant analyzer and further analyzed using FloJo. […]

SMILES: CC(C)NCCCn1c(Sc2cc(Cl)cc(Cl)c2)nc2c(N)ncnc21 [PU-WS13]
- AKT degradation [1]: lack of Hsp70 induction and AKT degradation; also recorded: has no effect
- Hsp70 induction [1]: lack of Hsp70 induction; also recorded: has no effect
- effect on cell growth (Capan-2 cells): no effect
- AUC0-24h for stomach relative to tumor AUC0-24h (in vivo; 75 mg/kg ip): 1.4 fold
- AUC0-24h for the large intestine relative to tumor AUC0-24h (in vivo; 75 mg/kg ip): 2 fold
- concentration at 2 h (in vivo; female, nu/nu athymic, mouse, plasma, intraperitoneal, 75 mg/kg ip, read-out: PU-WS13 level in the plasma): 100 µM
- AUC(0-t) (in vivo; female, nu/nu athymic, mouse, plasma, 75 mg/kg ip, read-out: AUC0-24 h plasma): 1260 µM·h
- concentration at 2 h (in vivo; female, nu/nu athymic, mouse, tumor, intraperitoneal, 75 mg/kg ip, read-out: PU-WS13 level in tumor): ~850 µM
- concentration at 24 h (in vivo; female, nu/nu athymic, mouse, tumor, intraperitoneal, single dose of 75 mg/kg, 24 h post-administration): 0.5 µM
- AUC(0-t) (in vivo; female, nu/nu athymic, mouse, tumor, 75 mg/kg ip, read-out: AUC0-24 h tumor): 9130 µM·h
- effect on cell growth (CFPAC cells): modest effect
- sensitivity to Grp94 inhibition (MKN74 cells): not sensitive
- sensitivity (apoptosis, cleaved PARP) [2]: sensitive
